# Measured values taken from ChEMBL document CHEMBL4699488, “Probing the B- & C-rings of the antimalarial tetrahydro-β-carboline MMV008138 for steric and conformational constraints” (Bioorg Med Chem Lett, 2020).
# Test system: Plasmodium falciparum
# Assay: Antimalarial activity against Plasmodium falciparum Dd2 incubated for 72 hrs by SYBR green dye based assay
# Type: functional, organism-based
# Conditions: Dd2, 72 h
row,EC50,Compound
1,> 10000 nM,C[C@]1(c2ccccc2)N[C@H](C(=O)O)Cc2c1[nH]c1ccccc21
2,320 nM,O=C(O)[C@@H]1Cc2c([nH]c3ccccc23)[C@@H](c2ccc(Br)cc2Cl)N1
3,> 10000 nM,C[C@@]1(C(=O)O)Cc2c([nH]c3ccccc23)[C@@H](c2ccc(Cl)cc2Cl)N1 (racemic)
4,410 nM,Cc1ccc([C@H]2N[C@H](C(=O)O)Cc3c2[nH]c2ccccc32)c(Cl)c1
5,8000 nM,Cn1c2c(c3ccccc31)C[C@@H](C(=O)O)N[C@@H]2c1ccc(Cl)cc1Cl
6,10000 nM,Cc1ccc([C@H]2N[C@H](C(=O)O)Cc3c2[nH]c2ccccc32)c(C)c1
7,> 10000 nM,O=C(O)[C@H](Cc1c[nH]c2ccccc12)NCc1ccc(Cl)cc1Cl
8,> 10000 nM,C[C@]1(c2ccccc2Cl)N[C@H](C(=O)O)Cc2c1[nH]c1ccccc21
9,> 10000 nM,O=C(O)[C@@H]1Cc2c([nH]c3ccccc23)[C@]2(CCc3ccccc32)N1
10,> 10000 nM,C[C@]1(c2ccc(Cl)cc2)N[C@H](C(=O)O)Cc2c1[nH]c1ccccc21
11,> 10000 nM,O=C(O)[C@@H]1Cc2c([nH]c3ccccc23)CN1Cc1ccc(Cl)cc1Cl
12,> 10000 nM,C[C@]1(c2ccc(Cl)cc2Cl)N[C@H](C(=O)O)Cc2c1[nH]c1ccccc21

# Test system: Plasmodium falciparum
# Assay: Antimalarial activity against Plasmodium falciparum Dd2 at 10 uM incubated for 72 hrs by SYBR green dye based assay relative to control
# Type: functional
# Conditions: not given
row,Compound,inhibition at 10 µM
1,CN1[C@H](c2ccc(Cl)cc2Cl)c2[nH]c3ccccc3c2C[C@H]1C(=O)O,65%

# Test system: not listed separately
# Assay: Inhibition of Plasmodium falciparum IspD
# Conditions: not given
row,IC50,Compound
1,34 nM,O=C(O)[C@@H]1Cc2c([nH]c3ccccc23)[C@@H](c2ccc(Br)cc2Cl)N1
2,260 nM,Cc1cc(Cl)ccc1[C@H]1N[C@H](C(=O)O)Cc2c1[nH]c1ccccc21
3,82 nM,Cc1ccc([C@H]2N[C@H](C(=O)O)Cc3c2[nH]c2ccccc32)c(Cl)c1
4,1000 nM,O=C(O)[C@@H]1Cc2c([nH]c3ccccc23)[C@@H](c2ccccc2Cl)N1
5,510 nM,O=C(O)[C@@H]1Cc2c([nH]c3ccccc23)[C@@H](c2ccc(Cl)cc2)N1
6,> 5000 nM,O=C(O)[C@@H]1Cc2c([nH]c3ccccc23)[C@@H](c2ccccc2)N1
7,1000 nM,Cc1ccc([C@H]2N[C@H](C(=O)O)Cc3c2[nH]c2ccccc32)c(C)c1
